Where a SMILES comes first, the peptide text is derived from it. [ ]: non-standard residue; d: D form. Aib = CC(C)(N)C(=O)O
Target: human GLP-1R (Homo sapiens, UniProt P43220)
Experiment: Peptide-receptor mediated cAMP accumulation (LANCE Ultra cAMP) in CHO-K1 cells transfected with human GLP-1R
Format: cell-based
Conditions: hGLP1 pEC50 (cAMP mean (n = 3): 11 point curve starting at 1 nM, Table 3)

Sequence of human GLP-1R (P43220 24-463): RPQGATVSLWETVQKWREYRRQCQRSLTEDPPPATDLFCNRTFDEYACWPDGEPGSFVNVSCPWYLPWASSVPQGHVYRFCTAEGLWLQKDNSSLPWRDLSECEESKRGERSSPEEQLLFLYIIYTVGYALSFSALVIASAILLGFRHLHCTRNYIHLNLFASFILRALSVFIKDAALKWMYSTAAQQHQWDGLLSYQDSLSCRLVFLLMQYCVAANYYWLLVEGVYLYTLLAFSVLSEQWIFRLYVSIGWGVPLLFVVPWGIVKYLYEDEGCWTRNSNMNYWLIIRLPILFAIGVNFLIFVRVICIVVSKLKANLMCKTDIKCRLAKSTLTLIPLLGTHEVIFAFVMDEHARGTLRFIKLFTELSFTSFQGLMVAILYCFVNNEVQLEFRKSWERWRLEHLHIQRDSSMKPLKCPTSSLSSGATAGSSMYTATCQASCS

| SMILES | EC50 |
| --- | --- |
| CC(C)C[C@H](NC(=O)[C@H](Cc1ccc(O)cc1)NC(=O)[C@H](CCCCN)NC(=O)[C@H](CO)NC(=O)[C@H](Cc1ccc(O)cc1)NC(=O)[C@H](CC(=O)O)NC(=O)[C@H](CO)NC(=O)[C@@H](NC(=O)[C@H](Cc1ccccc1)NC(=O)[C@@H](NC(=O)CNC(=O)[C@H](Cc1c[nH]cn1)NC(=O)[C@H](CO)NC(=O)[C@@H](N)Cc1ccc(O)cc1)[C@@H](C)O)[C@@H](C)O)C(=O)N[C@@H](CC(=O)O)C(=O)NC(C)(C)C(=O)N[C@@H](CCCCN)C(=O)N[C@@H](CCCNC(=N)N)C(=O)N[C@@H](C)C(=O)N[C@@H](CCC(N)=O)C(=O)N[C@@H](CCC(=O)O)C(=O)N[C@@H](Cc1ccccc1)C(=O)N[C@H](C(=O)NC(C)(C)C(=O)N[C@@H](Cc1c[nH]c2ccccc12)C(=O)N[C@@H](CC(C)C)C(=O)N[C@@H](CCC(=O)O)C(=O)N[C@@H](CCC(=O)O)C(=O)N[C@@H](CCC(=O)O)C(=O)N1CCC[C@H]1C(=O)N[C@@H](CO)C(=O)N[C@@H](CO)C(=O)NCC(=O)N[C@@H](C)C(=O)N1CCC[C@H]1C(=O)N1CCC[C@H]1C(=O)N1CCC[C@H]1C(=O)N[C@@H](CO)C(=O)O)C(C)C [Compound A9] (H-YSHGTFTSDYSKYLD[Aib]KRAQEFV[Aib]WLEEEPSSGAPPPS-OH; N-terminus assumed) | > 1 nM |
| CC(C)C[C@H](NC(=O)[C@H](Cc1ccc(O)cc1)NC(=O)[C@H](CCCCN)NC(=O)[C@H](CO)NC(=O)[C@H](Cc1ccc(O)cc1)NC(=O)[C@H](CC(=O)O)NC(=O)[C@H](CO)NC(=O)[C@@H](NC(=O)[C@H](Cc1ccccc1)NC(=O)[C@@H](NC(=O)CNC(=O)[C@H](Cc1c[nH]cn1)NC(=O)[C@H](CO)NC(=O)[C@@H](N)Cc1ccc(O)cc1)[C@@H](C)O)[C@@H](C)O)C(=O)N[C@@H](CC(=O)O)C(=O)NC(C)(C)C(=O)N[C@@H](CCCCN)C(=O)N[C@@H](CCCNC(=N)N)C(=O)N[C@@H](C)C(=O)N[C@@H](CCC(N)=O)C(=O)N[C@@H](CCC(=O)O)C(=O)N[C@@H](Cc1ccccc1)C(=O)N[C@H](C(=O)NC(C)(C)C(=O)N[C@@H](Cc1c[nH]c2ccccc12)C(=O)N[C@@H](CC(C)C)C(=O)N[C@@H](CCC(=O)O)C(=O)N[C@@H](CC(=O)O)C(=O)N[C@@H](CCC(=O)O)C(=O)NCC(=O)N[C@@H](C)C(=O)N1CCC[C@H]1C(=O)N1CCC[C@H]1C(=O)N1CCC[C@H]1C(=O)N[C@@H](CO)C(=O)O)C(C)C [Compound A12] (H-YSHGTFTSDYSKYLD[Aib]KRAQEFV[Aib]WLEDEGAPPPS-OH; N-terminus assumed) | > 1 nM |
| CC(C)C[C@H](NC(=O)[C@H](Cc1ccc(O)cc1)NC(=O)[C@H](CCCCN)NC(=O)[C@H](CO)NC(=O)[C@H](Cc1ccc(O)cc1)NC(=O)[C@H](CC(=O)O)NC(=O)[C@H](CO)NC(=O)[C@@H](NC(=O)[C@H](Cc1ccccc1)NC(=O)[C@@H](NC(=O)CNC(=O)[C@H](Cc1c[nH]cn1)NC(=O)[C@H](CO)NC(=O)[C@@H](N)Cc1ccc(O)cc1)[C@@H](C)O)[C@@H](C)O)C(=O)N[C@@H](CC(=O)O)C(=O)NC(C)(C)C(=O)N[C@@H](CCCCN)C(=O)N[C@@H](CCCNC(=N)N)C(=O)N[C@@H](C)C(=O)N[C@@H](CCC(N)=O)C(=O)N[C@@H](CCC(=O)O)C(=O)N[C@@H](Cc1ccccc1)C(=O)N[C@H](C(=O)NC(C)(C)C(=O)N[C@@H](Cc1c[nH]c2ccccc12)C(=O)N[C@@H](CC(C)C)C(=O)N[C@@H](CCC(=O)O)C(=O)N[C@@H](CC(=O)O)C(=O)N[C@@H](CCC(=O)O)C(=O)N[C@@H](CO)C(=O)NCC(=O)N[C@@H](C)C(=O)N1CCC[C@H]1C(=O)N1CCC[C@H]1C(=O)N1CCC[C@H]1C(=O)N[C@@H](CO)C(=O)O)C(C)C [Compound A13] (H-YSHGTFTSDYSKYLD[Aib]KRAQEFV[Aib]WLEDESGAPPPS-OH; N-terminus assumed) | > 1 nM |
| CC(C)C[C@H](NC(=O)[C@H](Cc1c[nH]c2ccccc12)NC(=O)[C@H](CCCCN)NC(=O)[C@H](CO)NC(=O)[C@H](Cc1ccc(O)cc1)NC(=O)[C@H](CC(=O)O)NC(=O)[C@H](CO)NC(=O)[C@@H](NC(=O)[C@H](Cc1ccccc1)NC(=O)[C@@H](NC(=O)CNC(=O)[C@H](Cc1c[nH]cn1)NC(=O)[C@H](CO)NC(=O)[C@@H](N)Cc1ccc(O)cc1)[C@@H](C)O)[C@@H](C)O)C(=O)N[C@@H](CC(=O)O)C(=O)NC(C)(C)C(=O)N[C@@H](C)C(=O)N[C@@H](CCCNC(=N)N)C(=O)N[C@@H](C)C(=O)N[C@@H](CCC(N)=O)C(=O)N[C@@H](CCC(=O)O)C(=O)N[C@@H](Cc1ccccc1)C(=O)N[C@H](C(=O)NC(C)(C)C(=O)N[C@@H](Cc1c[nH]c2ccccc12)C(=O)N[C@@H](CC(C)C)C(=O)N[C@@H](CCC(=O)O)C(=O)N[C@@H](CC(=O)O)C(=O)N[C@@H](CCC(=O)O)C(=O)N1CCC[C@H]1C(=O)N[C@@H](CO)C(=O)N[C@@H](CO)C(=O)NCC(=O)N[C@@H](C)C(=O)N1CCC[C@H]1C(=O)N1CCC[C@H]1C(=O)N1CCC[C@H]1C(=O)N[C@@H](CO)C(=O)O)C(C)C [Compound A18] (H-YSHGTFTSDYSKWLD[Aib]ARAQEFV[Aib]WLEDEPSSGAPPPS-OH; N-terminus assumed) | > 1 nM |
| CC(C)C[C@H](NC(=O)[C@H](Cc1ccc(O)cc1)NC(=O)[C@H](CCCCN)NC(=O)[C@H](CO)NC(=O)[C@H](Cc1ccc(O)cc1)NC(=O)[C@H](CC(=O)O)NC(=O)[C@H](CO)NC(=O)[C@@H](NC(=O)[C@H](Cc1ccccc1)NC(=O)[C@@H](NC(=O)CNC(=O)[C@H](Cc1c[nH]cn1)NC(=O)[C@H](CO)NC(=O)[C@@H](N)Cc1ccc(O)cc1)[C@@H](C)O)[C@@H](C)O)C(=O)N[C@@H](CC(=O)O)C(=O)NC(C)(C)C(=O)N[C@@H](CCCCN)C(=O)N[C@@H](CCCNC(=N)N)C(=O)N[C@@H](C)C(=O)N[C@@H](CCC(N)=O)C(=O)N[C@@H](CCC(=O)O)C(=O)N[C@@H](Cc1ccccc1)C(=O)N[C@H](C(=O)NC(C)(C)C(=O)N[C@@H](Cc1c[nH]c2ccccc12)C(=O)N[C@@H](CC(C)C)C(=O)N[C@@H](CCC(=O)O)C(=O)N[C@@H](CC(=O)O)C(=O)N[C@@H](CCC(=O)O)C(=O)N1CCC[C@H]1C(=O)N[C@@H](CO)C(=O)N[C@@H](CO)C(=O)N[C@@H](CCCCN)C(=O)NCC(=O)N[C@@H](C)C(=O)N1CCC[C@H]1C(=O)N1CCC[C@H]1C(=O)N1CCC[C@H]1C(=O)N[C@@H](CO)C(=O)O)C(C)C [Compound A24] (H-YSHGTFTSDYSKYLD[Aib]KRAQEFV[Aib]WLEDEPSSKGAPPPS-OH) | > 1 nM |
| CC(C)C[C@H](NC(=O)[C@H](Cc1ccc(O)cc1)NC(=O)[C@H](CCCCN)NC(=O)[C@H](CO)NC(=O)[C@H](Cc1ccc(O)cc1)NC(=O)[C@H](CC(=O)O)NC(=O)[C@H](CO)NC(=O)[C@@H](NC(=O)[C@H](Cc1ccccc1)NC(=O)[C@@H](NC(=O)CNC(=O)[C@H](Cc1c[nH]cn1)NC(=O)[C@H](CO)NC(=O)[C@@H](N)Cc1ccc(O)cc1)[C@@H](C)O)[C@@H](C)O)C(=O)N[C@@H](CC(=O)O)C(=O)NC(C)(C)C(=O)N[C@@H](CCCCN)C(=O)N[C@@H](CCCNC(=N)N)C(=O)N[C@@H](C)C(=O)N[C@@H](CCC(N)=O)C(=O)N[C@@H](CCC(=O)O)C(=O)N[C@@H](Cc1ccccc1)C(=O)N[C@H](C(=O)NC(C)(C)C(=O)N[C@@H](Cc1c[nH]c2ccccc12)C(=O)N[C@@H](CC(C)C)C(=O)N[C@@H](CCC(=O)O)C(=O)N[C@@H](CC(=O)O)C(=O)N[C@@H](CCC(=O)O)C(=O)NCC(=O)NCC(=O)N1CCC[C@H]1C(=O)N[C@@H](CO)C(=O)N[C@@H](CO)C(=O)NCC(=O)N[C@@H](C)C(=O)N1CCC[C@H]1C(=O)N1CCC[C@H]1C(=O)N1CCC[C@H]1C(=O)N[C@@H](CO)C(=O)O)C(C)C [Compound A27] (H-YSHGTFTSDYSKYLD[Aib]KRAQEFV[Aib]WLEDEGGPSSGAPPPS-OH; N-terminus assumed) | > 1 nM |
| CC(C)C[C@H](NC(=O)[C@H](Cc1c[nH]c2ccccc12)NC(=O)[C@H](CCCCN)NC(=O)[C@H](CO)NC(=O)[C@H](Cc1ccc(O)cc1)NC(=O)[C@H](CC(=O)O)NC(=O)[C@H](CO)NC(=O)[C@@H](NC(=O)[C@H](Cc1ccccc1)NC(=O)[C@@H](NC(=O)CNC(=O)[C@H](Cc1c[nH]cn1)NC(=O)[C@@H](NC(=O)[C@@H](N)Cc1ccc(O)cc1)[C@@H](C)O)[C@@H](C)O)[C@@H](C)O)C(=O)N[C@@H](CC(=O)O)C(=O)NC(C)(C)C(=O)N[C@@H](CCCCN)C(=O)N[C@@H](CCCNC(=N)N)C(=O)N[C@@H](C)C(=O)N[C@@H](CCC(N)=O)C(=O)N[C@@H](CCC(=O)O)C(=O)N[C@@H](Cc1ccccc1)C(=O)N[C@H](C(=O)NC(C)(C)C(=O)N[C@@H](Cc1c[nH]c2ccccc12)C(=O)N[C@@H](CC(C)C)C(=O)N[C@@H](CCC(=O)O)C(=O)N[C@@H](CC(=O)O)C(=O)N[C@@H](CCC(=O)O)C(=O)N1CCC[C@H]1C(=O)N[C@@H](CO)C(=O)N[C@@H](CO)C(=O)NCC(=O)N[C@@H](C)C(=O)N1CCC[C@H]1C(=O)N1CCC[C@H]1C(=O)N1CCC[C@H]1C(=O)N[C@@H](CO)C(=O)O)C(C)C [Compound A32] (H-YTHGTFTSDYSKWLD[Aib]KRAQEFV[Aib]WLEDEPSSGAPPPS-OH; N-terminus assumed) | > 1 nM |
| CC(C)C[C@H](NC(=O)[C@H](Cc1ccc(O)cc1)NC(=O)[C@H](CCCCN)NC(=O)[C@H](CO)NC(=O)[C@H](Cc1ccc(O)cc1)NC(=O)[C@H](CC(=O)O)NC(=O)[C@H](CO)NC(=O)[C@@H](NC(=O)[C@H](Cc1ccccc1)NC(=O)[C@@H](NC(=O)CNC(=O)[C@H](Cc1c[nH]cn1)NC(=O)[C@H](CO)NC(=O)[C@@H](N)Cc1ccc(O)cc1)[C@@H](C)O)[C@@H](C)O)C(=O)N[C@@H](CC(=O)O)C(=O)N[C@@H](CO)C(=O)N[C@@H](C)C(=O)N[C@@H](CCCNC(=N)N)C(=O)N[C@@H](C)C(=O)N[C@@H](CCC(N)=O)C(=O)N[C@@H](CCC(=O)O)C(=O)N[C@@H](Cc1ccccc1)C(=O)N[C@H](C(=O)N[C@@H](CCCCN)C(=O)N[C@@H](Cc1c[nH]c2ccccc12)C(=O)N[C@@H](CC(C)C)C(=O)N[C@@H](CCC(=O)O)C(=O)N[C@@H](CC(=O)O)C(=O)N[C@@H](CCC(=O)O)C(=O)N1CCC[C@H]1C(=O)N[C@@H](CO)C(=O)N[C@@H](CO)C(=O)NCC(=O)N[C@@H](C)C(=O)N1CCC[C@H]1C(=O)N1CCC[C@H]1C(=O)N1CCC[C@H]1C(=O)N[C@@H](CO)C(=O)O)C(C)C [Compound A37] (H-YSHGTFTSDYSKYLDSARAQEFVKWLEDEPSSGAPPPS-OH; N-terminus assumed) | > 1 nM |

Source: patent publication US20240239861A1, “GLUCAGON-RECEPTOR SELECTIVE POLYPEPTIDES AND METHODS OF USE THEREOF” (i2O Therapeutics, Inc., priority 2016, published 2024)
